Data published in patent US20130072383A1, “METHOD FOR ANTI-SPROUTING AND POSSIBLY FUNGICIDAL TREATMENT OF BULBS AND/OR TUBERS USING CLOVE OIL AND MINT OIL” (priority 2010, published 2013).

System: Bintje, Nicola and Charlotte potatoes
Test: Sprout-inhibiting treatment of stored potatoes over 6 months, sprout weights (Example 1)
Type: in vivo
Conditions: used alone
Method: The sprout-inhibiting treatments were carried out over a 6-month period.
The mint oil used contained about 70% L-carvone and the clove oil used contained about 90% eugenol.
The tested potatoes were Bintje, Nicola and Charlotte varieties.
An anti-sprouting composition A consisting of a mixture of clove oil (supplied by Charabot (Grasse)/ mint oil (supplied by Charabot (Grasse) at 2:1 v/v was prepared. The densities of mint and clove are respectively 0.94 and 1.04. This composition was applied to the potatoes using Electrofog Xeda 3000 equipment at an output temperature of 210° C., • at an initial dose of 90 grams of composition per tonne of potatoes, • at subsequent doses of 30 grams of composition per tonne of potatoes every three weeks.
For comparison, some potatoes were treated: • B: either with mint oil alone
at an initial dose of 90 grams of mint oil per tonne of potatoes,
at subsequent doses of 30 grams of mint oil per tonne of potatoes every three weeks; • C: or with clove oil alone
at an initial dose of 90 grams of clove oil per tonne of potatoes,
at subsequent doses of 30 grams of clove oil per tonne of potatoes every three weeks; • D: or with CIPC (Xedamate Aerosol 88 containing 20% CIPC) by thermal fogging:
at an initial dose of 60 grams of Xedamate Aerosol 88 per tonne of potatoes, […]

L-carvone
Anti-sprouting activity relative to reference product CIPC: comparable with the reference product (CIPC)
